Where two headings read alike, the source gives them in different places.
Assays:
[1] = test system: E. coli strain W3110; assay: Growth curves of E. coli strain W3110 in L-broth with antibiotic or BrdU; format: cell-based; conditions: FIG. 3
[2] = test system: Porphyromonas gingivalis (ATCC No. 33277); assay: BrdU immunocapture/PCR antibiotic sensitivity of Porphyromonas gingivalis; conditions: anaerobic culture; 2 hours antibiotic then 2 hours BrdU; FIG. 7
[3] = test system: T. denticola (ATCC number 35405); assay: BrdU immunocapture/PCR antibiotic sensitivity of Treponema denticola; format: cell-based; conditions: FIG. 9; for BrdU incorporation / immunocapture PCR signal: T. denticola; for sensitivity or resistance of T. denticola: anaerobic culture, no negative immunocapture control
Protocol: Treponema denticola was also studied using the invention. In these studies, a culture of T. denticola (ATCC number 35405) was inoculated into fresh media and grown anaerobically for 1 day in NOS media (ATCC media formulation 1494). The cultures were grown as in Part A of this Example, except that the cultures were incubated for about 8 hours prior to the addition of BrdU, they were incubated overnight after the addition of BrdU, and the samples were analyzed the next day. The PCR was conducted in the manner described above, except that a GroEL primer set was not available and a primer set for the FlgE gene (endoflagellar subunit protein) referred to FlgE001 and FlgE006 was substituted. These primers were expected to give rise to a 542 bp PCR fragment.

[4] = test system: H. actinomycetemcomitans (ATCC No. 43718); assay: BrdU immunocapture/PCR antibiotic sensitivity of H. actinomycetemcomitans; format: cell-based, Haemophilus actinomycetemcomitans; conditions: anaerobic culture; FIG. 8
Protocol: H. actinomycetemcomitans is reported to be a human pathogen, and has been implicated in juvenile periodontitis. In these studies, a culture of H. actinomycetemcomitans (ATCC No. 43718; previously known as Actinobacillus actinomycetemcomitans) was grown to saturation under anaerobic conditions as in part A, above, except that hemin was not added to the medium. The culture was diluted 1:10 into fresh media, and grown for a further 4 hours under anaerobic conditions. At this point, the culture was divided into aliquots and subjected to the same testing protocol as was employed in part A of this Example, except that after the BrdU was added, the 2 hour incubation was followed for convenience by overnight storage under refrigeration at 4° C. The next day, the aliquoted cultures were lysed by the NaOH lysis protocol described above, PCR was performed, and the capture probe set forth in Table 1 for this organism was employed.

[5] = test system: E. coli; format: cell-based
[6] = test system: E. coli strain NK5830; assay: BrdU immunocapture/PCR antibiotic sensitivity assay, strain NK5830; conditions: antibiotic 100 μg/ml, FIG. 4
[7] = test system: E. coli strain NK5830; format: cell-based; conditions: antibiotic at final concentration 100 μg/ml, FIG. 3
[8] = test system: E. coli (C600); assay: Ampicillin sensitivity of E. coli C600 as stated; format: cell-based
[9] = test system: P. mirabilis; assay: Ampicillin resistance of the P. mirabilis strain; format: cell-based, Proteus mirabilis; conditions: P. mirabilis strain used in these studies
[10] = test system: E. coli (C600); assay: Mixed culture P. mirabilis:E. coli 50:1 with ampicillin, BrdU immunocapture and FlaA PCR; format: cell-based; conditions: 50:1 P. mirabilis:E. coli; L-broth with 5, 10, or 20 μg/ml ampicillin

O=c1[nH]c(=O)n([C@H]2C[C@H](O)[C@@H](CO)O2)cc1Br [BrdU, 5-bromo-2′-deoxyuridine]
growth profile after addition of BrdU ([1]; BrdU added at 2.5 hours): did not change the growth profile

Cc1ncc([N+](=O)[O-])n1CCO [metronidazole]
sensitivity or resistance of P. gingivalis [2]: sensitive | BrdU incorporation / immunocapture PCR signal [3]: level of BrdU incorporation is at background | sensitivity or resistance of T. denticola [3]: sensitive | sensitivity or resistance of H. actinomycetemcomitans [4]: resistance

O=C(N[C@H](CO)[C@H](O)c1ccc([N+](=O)[O-])cc1)C(Cl)Cl [Chloramphenicol]
effect on the growth of E. coli [5]: significantly reduced growth

[H]/N=C(/N)N[C@H]1[C@H](O)[C@@H](O)[C@H](O[C@@H]2O[C@@H](C)[C@](O)(C=O)[C@H]2O[C@@H]2O[C@@H](CO)[C@H](O)[C@@H](O)[C@@H]2NC)[C@@H](N/C(N)=N\[H])[C@@H]1O [Streptomycin]
effect on the growth of E. coli [5]: little or no effect

CCn1cc(C(=O)O)c(=O)c2ccc(C)nc21 [nalidixic acid]
effect on the growth of E. coli [5]: greatest effect | sensitivity or resistance of P. gingivalis [2]: resistant | immunocapture/PCR signal (BrdU-labeled DNA, gel) [6]: strong positive signal | growth (growth curve) [7]: did not cause any growth inhibition | growth (growth curve) ([1]; antibiotic at final concentration 100 μg/ml): inhibited growth | BrdU incorporation / immunocapture PCR signal [3]: equivalent to the positive control | sensitivity or resistance of T. denticola [3]: resistant | sensitivity or resistance of H. actinomycetemcomitans [4]: sensitivity

CC1(C)S[C@@H]2[C@H](NC(=O)[C@H](N)c3ccccc3)C(=O)N2[C@H]1C(=O)O [Ampicillin]
sensitivity to ampicillin [8]: extremely sensitive | detectable BrdU compared to the control ([5]; E. coli strain W3110): lack of detectable BrdU compared to the control | effect on cells (lysis) ([5]; E. coli strain W3110): lysed | ampicillin concentration to which the strain is resistant [9]: over 400 μg/ml | PCR products obtained (E. coli 1 kb / P. mirabilis 800 bp) [10]: only the P. mirabilis PCR product

gentamycin
effect on the growth of E. coli ([5]; compared to controls grown in the absence of the antibiotic): greatest effect
